The results in this text go back to patent publication US4504463A, “Process for making a lyophilized product for use in skeletal imaging” (Mallinckrodt, Inc., priority 1982, dated 1985).

The experiment in a line: Skeletal imaging with scintillation camera after intravenous injection. To be noted: for results when used instead of the disodium salt of HMDP: carrier replaced in Example I kit; for results when used instead of AMDP: carrier replaced in Example II kit. The experiment is classed as in vivo, adult human. Here is the method:
An imaging agent is prepared using this kit by adding about 5 ml of a pertechnetate-Tc99m physiological saline with an activity of about 75 mCi, from a commercial technetium source. The vial is agitated until the kit components are dissolved. About 1 ml of the agent is slowly injected, over a period of about 30 seconds, into an adult human subject weighing about 75 kg.

Regarding `O=P(O)(O)C(O)P(=O)(O)O` [HMDP, methanehydroxydiphosphonic acid], the “results when used instead of the disodium salt of HMDP” value (“results when used instead … of HMDP” for short) was “substantially similar results”.
Take `NCC(O)(P(=O)(O)O)P(=O)(O)O` [ethane-1-hydroxy-2-amino-1,1-diphosphonic acid]: the “results when used instead of AMDP” value is on record as “substantially similar results”.
In the case of `Oc1ccc(O)cc1` [hydroquinone], the “results when used instead of gentisic acid” value (in vivo) is “substantially similar results”.
Take `OCc1cc(O)ccc1O` [gentisyl alcohol]: the “results when used instead of gentisic acid” value (stabilizer replaced in Example I kit) is “substantially similar results”.
In the case of `O=P(O)(O)CP(=O)(O)O` [MDP, methanediphosphonic acid], the “results when used instead … of HMDP” value is reported as “substantially similar results”.
Turning to `CNC(P(=O)(O)O)P(=O)(O)O` [methane-N-methylaminodiphosphonic acid], the “results when used instead of AMDP” value is “substantially similar results”.
`CN(C)C(P(=O)(O)O)P(=O)(O)O` [methane-N,N-dimethylaminodiphosphonic acid]: the “results when used instead of AMDP” value is “substantially similar results”.
With `NC(O)(P(=O)(O)O)P(=O)(O)O` [methaneaminohydroxydiphosphonic acid], the “results when used instead of AMDP” value is reported as “substantially similar results”.
Consider `O=S(=O)([O-])[O-].[Sn+2]` [stannous sulfate], for which the “results when used with or instead of stannous chloride” value (reductant replaced or added in Example II kit) is “substantially similar results”.
With stannous fluoride, the “results when used with or instead of stannous chloride” value (in vivo) was “substantially similar results”.
For `CC(O)(P(=O)(O)O)P(=O)(O)O` [EHDP, ethane-1-hydroxy-1,1-diphosphonic acid], the “results when used instead … of HMDP” value is recorded as “substantially similar results”.
